Source: US20250235543A1, “MODIFIED PROTEINS AND PROTEIN DEGRADERS” (Cullgen (Shanghai), Inc., priority 2021, published 2025)
Where two headings read alike, the source gives them in different places.

Legend:
[1] = test system: cyclin D1; experiment: Cyclin D1 percentage degradation in Calu-1 cells (immunoblotting); type: cell-based; details: 16 hours
Description: (§1) […] A: protein percentage degradation >=80%; B: protein percentage degradation <80%, and >=50%; C: protein percentage degradation <50%, and >=30%; D: protein percentage degradation <30%.
(§2) Cultured cells were washed with cold PBS once and lysed in cold RIPA buffer supplemented with protease inhibitors and phosphatase inhibitors (Beyotime Biotechnology). The solutions were then incubated at 4° C. for 30 min with gentle agitation to fully lysed cells. Cell lysates were centrifuged at 13,000 rpm for 10 min at 4° C. and pellets were discarded. Total protein concentrations in the lysates were determined following BCA assays (Beyotime Biotechnology). Cell lysates were mixed with Laemmli loading buffer and heated at 99° C. for 5 min. Proteins were resolved on SDS-PAGE and visualized using Western ECL Substrate kits on a ChemiDoc MP Imaging system (Bio-Rad). Protein bands were quantitated using the Image Lab software provided by Bio-Rad.

[2] = target: T1, CDK4 (Homo sapiens, UniProt P11802); experiment: CDK4 percentage degradation in Calu-1 cells (immunoblotting); type: cell-based; details: for inhibition at 0.2 µM: read-out: CDK4 Degradation (200 nM); for inhibition at 10 µM: read-out: CDK4 Degradation (10 μM)
T1 construct: endogenous in cells; host or cells: Calu-1
Description: as §1, §2

T1 sequence (P11802 2-303 limits assumed): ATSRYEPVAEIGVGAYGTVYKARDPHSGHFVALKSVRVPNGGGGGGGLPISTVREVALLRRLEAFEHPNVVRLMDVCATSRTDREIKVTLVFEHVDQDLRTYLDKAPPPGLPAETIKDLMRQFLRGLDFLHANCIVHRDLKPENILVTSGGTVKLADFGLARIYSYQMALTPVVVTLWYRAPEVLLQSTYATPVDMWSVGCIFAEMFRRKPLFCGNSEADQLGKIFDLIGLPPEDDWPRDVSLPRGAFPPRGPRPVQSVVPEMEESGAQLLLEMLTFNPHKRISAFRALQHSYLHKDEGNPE
T1 sequence (P24385 whole entry partner): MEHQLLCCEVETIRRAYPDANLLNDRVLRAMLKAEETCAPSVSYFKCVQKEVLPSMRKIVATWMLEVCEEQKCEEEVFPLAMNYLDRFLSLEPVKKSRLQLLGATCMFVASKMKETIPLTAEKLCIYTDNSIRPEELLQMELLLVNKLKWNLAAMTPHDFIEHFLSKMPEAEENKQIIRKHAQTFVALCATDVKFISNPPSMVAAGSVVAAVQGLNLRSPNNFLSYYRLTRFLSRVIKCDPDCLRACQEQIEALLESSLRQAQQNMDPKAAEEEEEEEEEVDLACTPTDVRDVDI
T1 sequence (Q16531 2-1140 limits assumed, further chain): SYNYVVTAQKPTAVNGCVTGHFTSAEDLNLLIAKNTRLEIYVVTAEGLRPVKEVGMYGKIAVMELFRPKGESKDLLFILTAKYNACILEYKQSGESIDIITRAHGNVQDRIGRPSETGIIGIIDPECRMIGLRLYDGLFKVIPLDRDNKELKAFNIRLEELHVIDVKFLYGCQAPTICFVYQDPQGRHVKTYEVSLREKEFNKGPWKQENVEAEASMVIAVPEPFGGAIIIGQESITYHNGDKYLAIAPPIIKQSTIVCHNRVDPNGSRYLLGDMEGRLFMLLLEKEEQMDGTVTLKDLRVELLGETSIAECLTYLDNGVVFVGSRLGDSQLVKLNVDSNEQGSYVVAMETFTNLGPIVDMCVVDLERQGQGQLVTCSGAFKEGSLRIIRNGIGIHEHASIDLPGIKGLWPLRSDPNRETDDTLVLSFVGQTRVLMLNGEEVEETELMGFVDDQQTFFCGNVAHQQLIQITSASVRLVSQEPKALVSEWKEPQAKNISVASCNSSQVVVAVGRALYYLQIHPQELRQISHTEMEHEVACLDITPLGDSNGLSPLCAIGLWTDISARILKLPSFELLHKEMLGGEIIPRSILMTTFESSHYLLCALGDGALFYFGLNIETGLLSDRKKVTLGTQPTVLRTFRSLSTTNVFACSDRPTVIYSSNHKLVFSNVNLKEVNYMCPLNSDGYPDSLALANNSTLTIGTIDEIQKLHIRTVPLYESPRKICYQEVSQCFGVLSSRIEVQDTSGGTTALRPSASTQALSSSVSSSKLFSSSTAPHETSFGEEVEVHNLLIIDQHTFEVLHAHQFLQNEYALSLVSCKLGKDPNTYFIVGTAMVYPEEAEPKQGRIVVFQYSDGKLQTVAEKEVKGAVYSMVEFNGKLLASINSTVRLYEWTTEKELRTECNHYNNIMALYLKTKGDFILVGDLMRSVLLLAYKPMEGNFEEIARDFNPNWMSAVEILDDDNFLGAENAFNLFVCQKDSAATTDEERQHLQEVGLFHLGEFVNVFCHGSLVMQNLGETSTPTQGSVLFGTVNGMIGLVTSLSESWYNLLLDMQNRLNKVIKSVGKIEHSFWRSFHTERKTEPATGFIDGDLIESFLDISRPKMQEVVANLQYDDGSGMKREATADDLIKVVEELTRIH

inhibition at 0.2 µM ([2]; Calu-1 cells, 200 nM, 16 hours) [%]	inhibition at 10 µM ([2]; Calu-1 cells, 16 hours) [%]	SMILES	CyclinD1 Degradation (200 nM) [1]	CyclinD1 Degradation (10 μM) [1]	inhibition at 0.2 µM ([2]; Calu-1, 16 h) [%]
50 to 80	–	CNc1ccc(C(=O)Nc2nc(C)c(C)s2)c(NC(=O)CCOCCOCCNC(=O)CN2CCN(c3ccc(Nc4ncc5c(C)c(C(C)=O)c(=O)n(C6CCCC6)c5n4)nc3)CC2)c1 [CPD-164, 2-(3-(2-(2-(2-(4-(6-((6-Acetyl-8-cyclopentyl-5-methyl-7-oxo-7,8-dihydropyrido[2,3-d]pyrimidin-2-yl)amino)pyridin-3-yl)piperazin-1-yl)acetamido)ethoxy)ethoxy)propanamido)-N-(4,5-dimethylthiazol-2-yl)-4-(methylamino)benzamide]	A (protein percentage degradation >=80%)	–	–
–	< 30	Cc1nc(NC(=O)c2ccccc2NC(=O)CCCCNC(=O)CN2CCN(c3ccc(Nc4ncc(F)c(-c5cc(F)c6nc(C)n(C(C)C)c6c5)n4)nc3)CC2)sc1C [CPD-303, N-(4,5-Dimethylthiazol-2-yl)-2-(5-(2-(4-(6-((5-fluoro-4-(4-fluoro-1-isopropyl-2-methyl-1H-benzo[d]imidazol-6-yl)pyrimidin-2-yl)amino)pyridin-3-yl)piperazin-1-yl)acetamido)pentanamido)benzamide]	–	D (protein percentage degradation < 30%)	–
< 30	–	CC(=O)c1c(C)c2cnc(Nc3ccc(N4CCN(CC(=O)NCCOCCOCCC(=O)Nc5ccccc5C(=O)Nc5nc(C)ns5)CC4)cn3)nc2n(C2CCCC2)c1=O [CPD-058, 2-(3-(2-(2-(2-(4-(6-((6-Acetyl-8-cyclopentyl-5-methyl-7-oxo-7,8-dihydropyrido[2,3-d]pyrimidin-2-yl)amino)pyridin-3-yl)piperazin-1-yl)acetamido)ethoxy)ethoxy)propanamido)-N-(3-methyl-1,2,4-thiadiazol-5-yl)benzamide]	D (protein percentage degradation <30%)	–	–
30 to 50	–	CC(=O)c1c(C)c2cnc(Nc3ccc(N4CCN(CC(=O)NCCCCCC(=O)Nc5ccccc5C(=O)Nc5nc(C)c(C)s5)CC4)cn3)nc2n(C2CCCC2)c1=O [CPD-172, 2-(6-(2-(4-(6-((6-Acetyl-8-cyclopentyl-5-methyl-7-oxo-7,8-dihydropyrido[2,3-d]pyrimidin-2-yl)amino)pyridin-3-yl)piperazin-1-yl)acetamido)hexanamido)-N-(4,5-dimethylthiazol-2-yl)benzamide]	D (protein percentage degradation <30%)	–	–
< 30	–	CC(=O)c1c(C)c2cnc(Nc3ccc(N4CCN(CC(=O)NCCOCCOCCOCCOCCOCCNC(=O)CNc5ccc(C(=O)Nc6ncc(C)s6)c(C)c5)CC4)cn3)nc2n(C2CCCC2)c1=O [CPD-014, 4-((23-(4-(6-((6-Acetyl-8-cyclopentyl-5-methyl-7-oxo-7,8-dihydropyrido[2,3-d]pyrimidin-2-yl)amino)pyridin-3-yl)piperazin-1-yl)-2,22-dioxo-6,9,12,15,18-pentaoxa-3,21-diazatricosyl)amino)-2-methyl-N-(5-methylthiazol-2-yl)benzamide]	D (protein percentage degradation <30%)	–	–
–	50 to 80	Cc1nc(NC(=O)c2ccccc2NC(=O)CCOCCOCCNC(=O)CN2CCN(c3ccc(Nc4ncc5cc6n(c5n4)C4(CCCCC4)CNC6=O)nc3)CC2)sc1C [CPD-323, N-(4,5-Dimethylthiazol-2-yl)-2-(3-(2-(2-(2-(4-(6-((6′-oxo-7′,8′-dihydro-6′H-spiro[cyclohexane-1,9′-pyrazino[1′,2′:1,5]pyrrolo[2,3-d]pyrimidin]-2′-yl)amino)pyridin-3-yl)piperazin-1-yl)acetamido)ethoxy)ethoxy)propanamido)benzamide]	–	A (protein percentage degradation >= 80%)	–

Second part, the compound before the results:

SMILES	inhibition at 0.2 µM ([2]; Calu-1 cells, 200 nM, 16 hours) [%]	inhibition at 10 µM ([2]; Calu-1 cells, 16 hours) [%]	CyclinD1 Degradation (200 nM) [1]	CyclinD1 Degradation (10 μM) [1]	inhibition at 0.2 µM ([2]; Calu-1, 16 h) [%]
CC(=O)c1c(C)c2cnc(Nc3ccc(N4CCN(CC(=O)NCCOCCOCCC(=O)Nc5ccccc5C(=O)Nc5cnc(C)cn5)CC4)cn3)nc2n(C2CCCC2)c1=O [CPD-054, 2-(3-(2-(2-(2-(4-(6-((6-Acetyl-8-cyclopentyl-5-methyl-7-oxo-7,8-dihydropyrido[2,3-d]pyrimidin-2-yl)amino)pyridin-3-yl)piperazin-1-yl)acetamido)ethoxy)ethoxy)propanamido)-N-(5-methylpyrazin-2-yl)benzamide]	50 to 80	–	A (protein percentage degradation >=80%)	–	–
CC(=O)c1c(C)c2cnc(Nc3ccc(N4CCN(C(=O)CCOCCOCCOCCNc5cccc(C(=O)Nc6nc(C)c(C)s6)c5C)CC4)cn3)nc2n(C2CCCC2)c1=O [CPD-122, 3-((2-(2-(2-(3-(4-(6-((6-Acetyl-8-cyclopentyl-5-methyl-7-oxo-7,8-dihydropyrido[2,3-d]pyrimidin-2-yl)amino)pyridin-3-yl)piperazin-1-yl)-3-oxopropoxy)ethoxy)ethoxy)ethyl)amino)-N-(4,5-dimethylthiazol-2-yl)-2-methylbenzamide]	–	–	A (protein percentage degradation >=80%)	–	50 to 80
Cc1nc(NC(=O)c2ccccc2NC(=O)CCOCCOCCOCCOCCNC(=O)CN2CCN(c3ccc(Nc4ncc5cc(C(=O)N(C)C)n(C6CCCC6)c5n4)nc3)CC2)sc1C [CPD-297, 7-Cyclopentyl-2-((5-(4-(18-((2-((4,5-dimethylthiazol-2-yl)carbamoyl)phenyl)amino)-2,18-dioxo-6,9,12,15-tetraoxa-3-azaoctadecyl)piperazin-1-yl)pyridin-2-yl)amino)-N,N-dimethyl-7H-pyrrolo[2,3-d]pyrimidine-6-carboxamide]	–	50 to 80	–	A (protein percentage degradation >= 80%)	–
CC(=O)c1c(C)c2cnc(Nc3ccc(N4CCN(CC(=O)NCCCCCCCNc5cc(C)ccc5C(=O)Nc5nc(C)c(C)s5)CC4)cn3)nc2n(C2CCCC2)c1=O [CPD-368, 2-((7-(2-(4-(6-((6-Acetyl-8-cyclopentyl-5-methyl-7-oxo-7,8-dihydropyrido[2,3-d]pyrimidin-2-yl)amino)pyridin-3-yl)piperazin-1-yl)acetamido)heptyl)amino)-N-(4,5-dimethylthiazol-2-yl)-4-methylbenzamide]	> 80	–	A (protein percentage degradation >=80%)	–	–
CC(=O)c1c(C)c2cnc(Nc3ccc(N4CCN(CC(=O)NCCOCCNc5ccc(C)c(C(=O)Nc6nc(C)c(C)s6)c5)CC4)cn3)nc2n(C2CCCC2)c1=O [CPD-096, 5-((2-(2-(2-(4-(6-((6-Acetyl-8-cyclopentyl-5-methyl-7-oxo-7,8-dihydropyrido[2,3-d]pyrimidin-2-yl)amino)pyridin-3-yl)piperazin-1-yl)acetamido)ethoxy)ethyl)amino)-N-(4,5-dimethylthiazol-2-yl)-2-methylbenzamide]	< 30	–	D (protein percentage degradation <30%)	–	–
Cc1nc(NC(=O)c2ccccc2NC(=O)CCCCCCCNC(=O)CN2CCN(c3ccc(Nc4ncc5cc(C(=O)N(C)C)n(C6CCCC6)c5n4)nc3)CC2)sc1C [CPD-292, 7-Cyclopentyl-2-((5-(4-(2-((8-((2-((4,5-dimethylthiazol-2-yl)carbamoyl)phenyl)amino)-8-oxooctyl)amino)-2-oxoethyl)piperazin-1-yl)pyridin-2-yl)amino)-N,N-dimethyl-7H-pyrrolo[2,3-d]pyrimidine-6-carboxamide]	–	< 30	–	B (protein percentage degradation < 80%, and >= 50%)	–
